The source of these data is patent US11014895B2, “Heterocyclic urea compound, and drug composition and application thereof” (CHINA PHARMACEUTICAL UNIVERSITY, priority 2017, dated 2021).

One assay has as its target IDO1 enzyme (Homo sapiens, UniProt P14902). In words: Determination of biochemical activity of IDO1 enzyme (absorbance at 320 nm). Particulars: room temperature, 3 hours. A digest of the protocol: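 Absorbance at 320 nm was measured after a 3-hour room-temperature reaction of enzyme with compound. Phosphate buffer at pH 7-8 was used; inhibition was derived from the absorption ratio and fitted to IC50.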

For assay [1], the target named is T1, IDO1 enzyme in the Hela cell (Homo sapiens, UniProt P14902).
T1 construct: endogenous in cells; host or cells: HeLa cells stimulated with interferon γ (100 ng/ml)
In words: Cell activity: interferon γ-stimulated Hela cells, absorbance of supernatant at 480 nm. In kind it is cell-based. Particulars: interferon γ 100 ng/ml, 72 hours. Summed up: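 Kynurenine-type readout: supernatant from IFN-γ-stimulated (100 ng/ml final) HeLa cells, 72 h with compound, was acid-hydrolysed with trichloroacetic acid (50 °C, 30 min). After centrifugation, 2% dimethylaminobenzaldehyde/acetic acid added and absorbance measured at 480 nm.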

A value given as a limit tells only on which side of the number the result lay.

T1 sequence (P14902 whole entry): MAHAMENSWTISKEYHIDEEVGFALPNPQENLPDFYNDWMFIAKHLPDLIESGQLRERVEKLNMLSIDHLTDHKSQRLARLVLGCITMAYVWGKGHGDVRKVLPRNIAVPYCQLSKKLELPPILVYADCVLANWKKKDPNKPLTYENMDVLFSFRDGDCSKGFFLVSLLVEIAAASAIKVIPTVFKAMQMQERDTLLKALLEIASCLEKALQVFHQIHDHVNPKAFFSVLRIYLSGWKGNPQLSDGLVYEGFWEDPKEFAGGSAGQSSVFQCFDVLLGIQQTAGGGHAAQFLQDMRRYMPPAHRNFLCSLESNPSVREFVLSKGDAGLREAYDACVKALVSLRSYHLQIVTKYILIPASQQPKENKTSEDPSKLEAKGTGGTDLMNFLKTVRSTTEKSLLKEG
Sequence of IDO1 enzyme (P14902 whole entry): as above

In the case of `O=C(Nc1nonc1/C(=N/O)Nc1ccc(F)c(Br)c1)N1CCNCC1` [Embodiment 48, (Z)-1-(4-(N-(3-bromo-4-fluorophenyl)-N′-hydroxyaminoiminomethyl)-1,2,5-oxadiazole-3-substituted)piperazine-1-carbamide], the IC50 (on IDO1 enzyme; in assay [1]) was 0.1 to 1 µM throughout.

Consider `O/N=C(\Nc1ccc(F)c(Br)c1)c1nonc1NC(=S)Nc1ccccc1` [Embodiment 116, (Z)-1-(4-(N-(4-bromo-3-fluorophenyl)-N′-hydroxyaminoiminomethyl)-1,2,5-oxadiazole-3-substituted)-3-phenylthiourea], for which the IC50 (on IDO1 enzyme; in assay [1]) was 0.1 to 1 µM throughout.

With `O=C(NCCO)Nc1cocc1/C(=N/O)Nc1ccc(F)c(Br)c1` [Embodiment 68, (Z)-1-(4-(N-(3-bromo-4-fluorophenyl)-N′-hydroxyaminoiminomethyl)-furan-3-substituted)+3-(2-hydroxyethyl)urea], the half-inhibitory concentration (IC50) (at IDO1 enzyme; in assay [1]) was 0.1 to 1 µM each time.

In the case of `NC1CCC(NC(=O)Nc2nocc2/C(=N/O)Nc2ccc(F)c(Br)c2)CC1` (stereo not drawn) [Embodiment 87, (Z)-1-(4-(N-(3-bromo-4-fluorophenyl)-N′-hydroxyaminoiminomethyl)-isoxazole-3-substituted)-3-(4-aminocyclohexyl)urea], the concentration for half-maximal inhibition (IC50) (against IDO1 enzyme; in assay [1]) was below 0.001 µM in each case.

Consider `OCCNC(=S)Nc1nonc1/C(=N/O)Nc1ccc(F)c(Br)c1` [Embodiment 128, (Z)-1-(4-(N-(3-bromo-4-fluorophenyl)-N′-hydroxyaminoiminomethyl)-1,2,5-oxadiazole-3-substituted)-3-(2-hydroxyethyl)thiourea], for which the IC50 (at IDO1 enzyme; in assay [1]) was below 0.001 µM throughout.

As to `O=C(Nc1ccsc1)Nc1nonc1/C(=N/O)Nc1ccc(F)c(Br)c1` [Embodiment 42, (Z)-1-(4-(N-(3-bromo-4-fluorophenyl)-N′-hydroxyaminoiminomethyl)-1,2,5-oxadiazole-3-substituted)-3-(thiophene-3-substituted)urea], the concentration for half-maximal inhibition (IC50) (on IDO1 enzyme; in assay [1]) was above 1 µM in each case.

`O=C(NCCO)Nc1nonc1/C(=N/O)Nc1ccc(F)c(Cl)c1` [Embodiment 28, (Z)-1-(4-(N-(3-chloro-4-fluorophenyl)-N′-hydroxyaminoiminomethyl)-1,2,5-oxadiazole-3-substituted)-3-(23-hydroxyethane)urea]: the IC50 (against IDO1 enzyme; in assay [1]) was below 0.001 µM throughout.

Consider `COc1ccc(NC(=O)Nc2nonc2/C(=N/O)Nc2ccc(F)cc2)cc1` [Embodiment 54, (Z)-1-(4-(N-(4-fluorophenyl)-N′-hydroxyaminoiminomethyl)-1,2,5-oxadiazole-3-substituted)-3-(4-methoxyphenyl)urea], for which the IC50 (on IDO1 enzyme; in assay [1]) was 0.1 to 1 µM in each case.

Turning to `O=C(Nc1nonc1/C(=N/O)Nc1ccc(F)c(Br)c1)NC1CCOC1` (stereo not drawn) [Embodiment 47, (Z)-1-(4-(N-(3-bromo-4-fluorophenyl)-N′-hydroxyaminoiminomethyl)-1,2,5-oxadiazole-3-substituted)-3-(tetrahydrofuran-substituted)urea], the half-maximal inhibitory concentration (IC50) (against IDO1 enzyme; in assay [1]) was 0.1 to 1 µM throughout.

In the case of `N=C(Nc1nonc1/C(=N/O)Nc1ccc(F)c(Br)c1)NC1CCNCC1` [Embodiment 148, (Z)-1-(4-(N-(3-bromo-4-fluorophenyl)-N′-hydroxyaminoiminomethyl)-1,2,5-oxadiazole-3-substituted)-3-(piperidine-4-substituted)guanidine], the IC50 (against IDO1 enzyme; in assay [1]) was below 0.001 µM throughout.

For `O/N=C(\Nc1ccc(F)c(Br)c1)c1nonc1NC(=S)NC1CCCCC1` [Embodiment 121, (Z)-1-(4-(N-(3-bromo-4-fluorophenyl)-N′-hydroxyaminoiminomethyl)-1,2,5-oxadiazole-3-substituted-)-3-(cyclohexyl)thiourea], the IC50 (against IDO1 enzyme; in assay [1]) was 0.1 to 1 µM each time.

Regarding `NCCCNC(=O)Nc1cocc1/C(=N/O)Nc1ccc(F)c(Br)c1` [Embodiment 67, (Z)-1-(4-(N-(3-bromo-4-fluorophenyl)-N′-hydroxyaminoiminomethyl)-furan-3-substituted)-3-(3-aminopropyl)urea], the concentration for half-maximal inhibition (IC50) (against IDO1 enzyme; in assay [1]) was 0.1 to 1 µM in each case.

As for `N=C(NCCN)Nc1nonc1/C(=N/O)Nc1ccc(F)c(Br)c1` [Embodiment 153], the IC50 (at IDO1 enzyme; in assay [1]) was below 0.001 µM throughout.

Consider `N=C(Nc1ccc(C(F)(F)F)cc1)Nc1nonc1/C(=N/O)Nc1ccc(F)c(Br)c1` [Embodiment 143, (Z)-1-(4-(N-(3-bromo-4-fluorophenyl)-N′-hydroxyaminoiminomethyl)-1,2,5-oxadiazole-3-substituted)-3-(4-trifluorophenyl)guanidine], for which the IC50 (against IDO1 enzyme; in assay [1]) was above 1 µM in each case.

`O=C(Nc1ncc[nH]1)Nc1nonc1/C(=N/O)Nc1ccc(F)c(Br)c1` [Embodiment 46, (Z)-1-(4-(N-(3-bromo-4-fluorophenyl)-N′-hydroxyaminoiminomethyl)-1,2,5-oxadiazole-3-substituted)-3-(1H-imidazole-2-substituted)urea]: the IC50 (against IDO1 enzyme; in assay [1]) was above 1 µM throughout.

Turning to `CS(=O)(=O)N1CCN(C(=O)Nc2nonc2/C(=N/O)Nc2ccc(F)cc2)CC1` [Embodiment 53], the half-inhibitory concentration (IC50) (at IDO1 enzyme; in assay [1]) was 0.1 to 1 µM throughout.

On to `CCCNC(=O)Nc1cocc1/C(=N/O)Nc1ccc(F)c(Br)c1` [Embodiment 70, (Z)-1-(4-(N-(3-bromo-4-fluorophenyl)-N′-hydroxyaminoiminomethyl)-furan-3-substituted)-3-propylurea], for which the concentration for half-maximal inhibition (IC50) (against IDO1 enzyme; in assay [1]) was 0.1 to 1 µM in each case.

Consider `O=C(Nc1nocc1/C(=N/O)Nc1ccc(F)c(Br)c1)NC1CCCCC1` [Embodiment 82, (Z)-1-(4-(N-(3-bromo-4-fluorophenyl)-N′-hydroxyaminoiminomethyl)-isoxazole-3-substituted)-3-(cyclohexyl)urea], for which the IC50 (at IDO1 enzyme; in assay [1]) was 0.1 to 1 µM each time.

`N=C(NCCO)Nc1nonc1/C(=N/O)Nc1ccc(F)c(Br)c1` [Embodiment 152, (Z)-1-(4-(N-(3-bromo-4-fluorophenyl)-N′-hydroxyaminoiminomethyl)-1,2,5-oxadiazole-3-substituted)-3-(2-hydroxyethyl)guanidine]: the half-maximal inhibitory concentration (IC50) (on IDO1 enzyme; in assay [1]) was below 0.001 µM throughout.

Consider `N=C(Nc1ccccc1)Nc1cocc1/C(=N/O)Nc1ccc(F)c(Br)c1` [Embodiment 161, (Z)-1-(4-(N-(3-bromo-4-fluorophenyl)-N′-hydroxyaminoiminomethyl)-furan-3-substituted)-3-phenylguanidine], for which the IC50 (against IDO1 enzyme; in assay [1]) was 0.1 to 1 µM each time.

For the compound `NS(=O)(=O)NCCNC(=O)Nc1nonc1/C(=N/O)Nc1ccc(F)c(Cl)c1` [Embodiment 30], the IC50 (against IDO1 enzyme; in assay [1]) was below 0.001 µM in each case.

With `O=C(Nc1ccoc1)Nc1cocc1/C(=N/O)Nc1ccc(F)c(Br)c1` [Embodiment 77], the half-maximal inhibitory concentration (IC50) (against IDO1 enzyme; in assay [1]) was above 1 µM throughout.

As for `O=C(Nc1nonc1/C(=N/O)Nc1ccc(F)c(Br)c1)NC1CCCC1` [Embodiment 8, (Z)-1-(4-(N-(3-bromo-4-fluorophenyl)-N′-hydroxyaminoiminomethyl)-1,2,5-oxadiazole-3-substituted)-3-cyclopentylurea], the IC50 (at IDO1 enzyme; in assay [1]) was 0.1 to 1 µM in each case.

As for `CCCNC(=O)Nc1nocc1/C(=N/O)Nc1ccc(F)c(Br)c1` [Embodiment 91, (Z)-1-(4-(N-(3-bromo-4-fluorophenyl)-N′-hydroxyaminoiminomethyl)-isoxazole-3-substituted)-3-(propyl)urea], the half-maximal inhibitory concentration (IC50) (on IDO1 enzyme; in assay [1]) was 0.1 to 1 µM throughout.

As for `N=C(Nc1ccccc1)Nc1conc1/C(=N/O)Nc1ccc(F)c(Cl)c1` [Embodiment 155, (Z)-1-(4-(N-(3-chloro-4-fluorophenyl)-N′-hydroxyaminoiminomethyl)-isoxazole-3-substituted)-4-phenylguanidine], the IC50 (against IDO1 enzyme; in assay [1]) was 0.1 to 1 µM throughout.

On to `O=C(Nc1nonc1/C(=N/O)Nc1ccc(F)c(Br)c1)Nc1cccc2cc[nH]c12` [Embodiment 36, (Z)-1-(4-(N-(3-bromo-4-fluorophenyl)-N′-hydroxyaminoiminomethyl)-1,2,5-oxadiazole-3-substituted)-3-(1H-indole-7-substituted)urea], for which the IC50 (against IDO1 enzyme; in assay [1]) was 0.1 to 1 µM each time.

Consider `O=C(Nc1nonc1/C(=N/O)Nc1ccc(F)cc1)NC1CCCCC1` [Embodiment 52, (Z)-1-(4-(N-(4-fluorophenyl)-N′-hydroxyaminoiminomethyl)-1,2,5-oxadiazole-3-substituted)-3-cyclohexylurea], for which the IC50 (on IDO1 enzyme; in assay [1]) was 0.1 to 1 µM each time.

As for `COc1ccc(NC(=O)Nc2conc2/C(=N/O)Nc2ccc(F)c(Br)c2)cc1` [Embodiment 100, (Z)-1-(4-(N-(3-bromo-4-fluorophenyl)-N′-hydroxyaminoiminomethyl)-isoxazole-3-substituted)-4-(4-methoxyphenyl)urea], the IC50 (at IDO1 enzyme; in assay [1]) was 0.1 to 1 µM throughout.

In the case of `NC1CCC(NC(=O)Nc2nonc2/C(=N/O)Nc2ccc(F)c(Cl)c2)CC1` (stereo not drawn) [Embodiment 26], the concentration for half-maximal inhibition (IC50) (against IDO1 enzyme; in assay [1]) was below 0.001 µM each time.

For `N#Cc1ccc(NC(=O)Nc2nonc2/C(=N/O)Nc2ccc(F)cc2)cc1` [Embodiment 57, (Z)-1-(4-(N-(4-fluorophenyl)-N′-hydroxyaminoiminomethyl)-1,2,5-oxadiazole-3-substituted)-3-(4-cyanophenyl)urea], the half-inhibitory concentration (IC50) (against IDO1 enzyme; in assay [1]) was above 1 µM throughout.
